Results as given in ChEMBL document CHEMBL5376009 (RSC Med Chem, 2024).

What was measured:
Format in all cases: functional, organism-based
[1] = tested on: Influenza A virus; assay: Antiviral activity against influenza A virus A/WSN/1933 (H1N1) infected in MDCK cells harbouring TamiFlu sensitive neuraminidase 274Y mutant assessed as reduction in cytopathic effect by DAPI staining based analysis
[2] = tested on: Influenza A virus; assay: Antiviral activity against influenza A virus A/WSN/1933 (H1N1) harboring Tamiflu- sensitive neuraminidase (274Y) infected in MDCK cells assessed as reduction in cytopathic effect by fluorescence based analysis
[3] = tested on: Influenza A virus; assay: Antiviral activity against influenza A virus A/WSN/1933 (H1N1) infected in MDCK cells harbouring TamiFlu sensitive neuraminidase 274H mutant assessed as reduction in cytopathic effect by DAPI staining based analysis
[4] = tested on: Influenza A virus; assay: Antiviral activity against influenza A virus A/WSN/1933 (H1N1) harboring Tamiflu- sensitive neuraminidase (274H) infected in MDCK cells assessed as reduction in cytopathic effect by fluorescence based analysis
[5] = tested on: Influenza A virus; assay: Antiviral activity against Oseltamivir-resistant Influenza A virus (H1N1) pdm09

Row | SMILES | EC50 [1] [nM] | EC50 [2] [nM] | EC50 [3] [nM] | IC50 [4] [nM] | EC50 [5] [nM]
1 | Cc1onc(-c2ccccc2Cl)c1C(=O)N1CCN(c2ccc([N+](=O)[O-])cc2Cl)CC1 | 140 | 140 | 140 | 70 | 
2 | COc1cccc(OC)c1C(=O)/C=C/c1nc(C)c(C)nc1C |  |  |  |  | 1040
